Measured values from patent US9050341B2, “Methods of treating drug resistant and other tumors by administering 6,7-dialkoxy quinazoline derivatives” (NATCO PHARMA LIMITED, priority 2009, dated 2015).

How the values were obtained:
Assay in all cases: KinomeScan kinase profiling
Type in all cases: binding
[1] = target: T1, KIT (D816V) (Homo sapiens, UniProt P10721, D816V)
T1 construct: host or cells: T7 phage in E. coli host derived from BL21
How it was run: (§1)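 Kinases were expressed as T7 phage fusions in a BL21-derived E. coli host and the cleared lysates were used. Ligand beads were blocked with biotin and buffer (1% BSA, 0.05% Tween 20, 1 mM DTT). Compounds came from 40× DMSO stocks, and phage in the eluates was titred by qPCR.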

[2] = target: T2, DAPK2 (Homo sapiens, UniProt Q9UIK4)
T2 construct: purchased Ambit Biosciences Corp (KinomeScan); host or cells: T7 phage in E. coli host derived from BL21
T2 sequence (Q9UIK4 whole entry): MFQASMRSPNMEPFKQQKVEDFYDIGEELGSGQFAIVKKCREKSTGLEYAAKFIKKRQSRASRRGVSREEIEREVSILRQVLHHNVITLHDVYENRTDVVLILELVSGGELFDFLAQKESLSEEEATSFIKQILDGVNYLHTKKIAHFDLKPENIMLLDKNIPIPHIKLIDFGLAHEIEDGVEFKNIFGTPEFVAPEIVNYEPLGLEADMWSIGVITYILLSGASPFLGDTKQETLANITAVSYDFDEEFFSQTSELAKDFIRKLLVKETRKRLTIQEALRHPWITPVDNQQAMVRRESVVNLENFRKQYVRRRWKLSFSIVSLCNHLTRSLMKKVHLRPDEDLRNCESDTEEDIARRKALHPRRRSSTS
How it was run: as §1

[3] = target: T3, PLK4 (Homo sapiens, UniProt O00444)
T3 construct: purchased Ambit Biosciences Corp (KinomeScan); host or cells: E. coli host derived from BL21, infected with T7 phage
How it was run: as §1

[4] = target: T4, TXK (Homo sapiens, UniProt P42681)
T4 construct: purchased Ambit Biosciences Corp (KinomeScan); host or cells: E. coli host derived from the BL21 strain (T7 phage lysate)
How it was run: as §1

[5] = target: T5, EGFR (G719C) (Homo sapiens, UniProt P00533, G719C)
T5 construct: purchased Ambit Biosciences Corp (KinomeScan); host or cells: T7 phage in E. coli host derived from BL21
How it was run: as §1

[6] = target: T6, EGFR (L861Q) (Homo sapiens, UniProt P00533, L861Q)
T6 construct: host or cells: E. coli host derived from BL21, T7 phage lysate
How it was run: as §1

[7] = target: T7, ITK (Homo sapiens, UniProt Q08881)
T7 construct: host or cells: T7 phage in E. coli host derived from BL21
How it was run: as §1

[8] = target: T8, BTK (Homo sapiens, UniProt Q06187)
T8 construct: purchased Ambit Biosciences Corp (KinomeScan); host or cells: E. coli host derived from the BL21 strain, T7 phage
How it was run: as §1

[9] = target: T9, CLK2 (Homo sapiens, UniProt P49760)
T9 construct: host or cells: T7 phage in E. coli (BL21-derived)
How it was run: as §1

[10] = target: T10, ARK5 (Homo sapiens, UniProt O60285)
T10 construct: purchased Ambit Biosciences Corp (KinomeScan); host or cells: E. coli host derived from the BL21 strain, T7 phage
T10 sequence (O60285 whole entry): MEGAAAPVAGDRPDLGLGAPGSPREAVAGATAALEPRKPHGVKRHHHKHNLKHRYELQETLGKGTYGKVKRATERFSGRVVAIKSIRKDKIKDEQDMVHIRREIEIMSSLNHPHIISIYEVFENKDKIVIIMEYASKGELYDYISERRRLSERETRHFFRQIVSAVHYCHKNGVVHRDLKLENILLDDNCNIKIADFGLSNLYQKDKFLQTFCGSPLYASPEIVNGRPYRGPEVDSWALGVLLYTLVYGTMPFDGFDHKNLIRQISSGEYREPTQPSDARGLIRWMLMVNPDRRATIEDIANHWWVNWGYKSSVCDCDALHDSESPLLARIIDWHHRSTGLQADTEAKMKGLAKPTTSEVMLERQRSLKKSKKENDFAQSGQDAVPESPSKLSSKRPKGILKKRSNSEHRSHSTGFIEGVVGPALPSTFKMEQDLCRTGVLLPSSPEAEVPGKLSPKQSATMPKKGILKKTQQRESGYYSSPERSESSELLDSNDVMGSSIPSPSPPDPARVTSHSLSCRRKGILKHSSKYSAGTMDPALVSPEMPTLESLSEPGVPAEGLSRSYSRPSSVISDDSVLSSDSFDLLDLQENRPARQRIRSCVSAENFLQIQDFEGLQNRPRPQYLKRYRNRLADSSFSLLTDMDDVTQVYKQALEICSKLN
How it was run: as §1

[11] = target: T11, BMX (Homo sapiens, UniProt P51813)
T11 construct: purchased Ambit Biosciences Corp (KinomeScan); host or cells: E. coli host derived from the BL21 strain, T7 phage
How it was run: as §1

[12] = target: T12, CDC2L2 (Homo sapiens, UniProt Q9UQ88)
T12 construct: host or cells: T7 phage in E. coli (BL21-derived)
How it was run: as §1

[13] = target: T13, CAMKK1 (Homo sapiens, UniProt Q8N5S9)
T13 construct: host or cells: T7 phage in E. coli (BL21-derived)
How it was run: as §1

[14] = target: T14, RIPK2 (Homo sapiens, UniProt O43353)
T14 construct: host or cells: E. coli host derived from BL21, T7 phage lysate
T14 sequence (O43353 whole entry): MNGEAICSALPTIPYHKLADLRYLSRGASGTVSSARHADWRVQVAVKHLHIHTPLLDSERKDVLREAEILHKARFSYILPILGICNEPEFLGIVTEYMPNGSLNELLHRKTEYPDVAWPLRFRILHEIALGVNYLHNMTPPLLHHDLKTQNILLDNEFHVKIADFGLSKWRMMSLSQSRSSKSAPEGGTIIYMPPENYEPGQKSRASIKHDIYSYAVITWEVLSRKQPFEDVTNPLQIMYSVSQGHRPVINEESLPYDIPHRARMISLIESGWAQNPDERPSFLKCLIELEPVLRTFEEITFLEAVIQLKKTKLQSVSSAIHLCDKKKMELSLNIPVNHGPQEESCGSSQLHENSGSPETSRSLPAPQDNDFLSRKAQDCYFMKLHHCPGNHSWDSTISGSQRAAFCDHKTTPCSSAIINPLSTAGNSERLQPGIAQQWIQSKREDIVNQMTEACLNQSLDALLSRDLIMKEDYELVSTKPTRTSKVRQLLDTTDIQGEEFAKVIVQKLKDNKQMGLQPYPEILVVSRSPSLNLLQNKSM
How it was run: as §1

[15] = target: T15, TYK2 (JH1domain-catalytic) (Homo sapiens, UniProt P29597)
T15 construct: TYK2 (JH1domain-catalytic); purchased Ambit Biosciences Corp (KinomeScan); host or cells: E. coli host derived from the BL21 strain (T7 phage lysate)
T15 sequence (P29597 897-1176 limits assumed): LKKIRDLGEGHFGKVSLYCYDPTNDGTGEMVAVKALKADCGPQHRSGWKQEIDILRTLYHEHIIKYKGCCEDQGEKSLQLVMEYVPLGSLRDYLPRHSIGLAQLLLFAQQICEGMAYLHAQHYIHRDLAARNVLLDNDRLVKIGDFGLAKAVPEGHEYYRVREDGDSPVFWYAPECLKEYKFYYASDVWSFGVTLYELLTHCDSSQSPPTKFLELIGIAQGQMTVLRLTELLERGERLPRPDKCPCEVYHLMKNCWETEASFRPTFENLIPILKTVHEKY
How it was run: as §1

[16] = target: T16, MAP4K2 (Homo sapiens, UniProt Q12851)
T16 construct: host or cells: E. coli derived from BL21, infected with T7 phage
T16 sequence (Q12851 whole entry): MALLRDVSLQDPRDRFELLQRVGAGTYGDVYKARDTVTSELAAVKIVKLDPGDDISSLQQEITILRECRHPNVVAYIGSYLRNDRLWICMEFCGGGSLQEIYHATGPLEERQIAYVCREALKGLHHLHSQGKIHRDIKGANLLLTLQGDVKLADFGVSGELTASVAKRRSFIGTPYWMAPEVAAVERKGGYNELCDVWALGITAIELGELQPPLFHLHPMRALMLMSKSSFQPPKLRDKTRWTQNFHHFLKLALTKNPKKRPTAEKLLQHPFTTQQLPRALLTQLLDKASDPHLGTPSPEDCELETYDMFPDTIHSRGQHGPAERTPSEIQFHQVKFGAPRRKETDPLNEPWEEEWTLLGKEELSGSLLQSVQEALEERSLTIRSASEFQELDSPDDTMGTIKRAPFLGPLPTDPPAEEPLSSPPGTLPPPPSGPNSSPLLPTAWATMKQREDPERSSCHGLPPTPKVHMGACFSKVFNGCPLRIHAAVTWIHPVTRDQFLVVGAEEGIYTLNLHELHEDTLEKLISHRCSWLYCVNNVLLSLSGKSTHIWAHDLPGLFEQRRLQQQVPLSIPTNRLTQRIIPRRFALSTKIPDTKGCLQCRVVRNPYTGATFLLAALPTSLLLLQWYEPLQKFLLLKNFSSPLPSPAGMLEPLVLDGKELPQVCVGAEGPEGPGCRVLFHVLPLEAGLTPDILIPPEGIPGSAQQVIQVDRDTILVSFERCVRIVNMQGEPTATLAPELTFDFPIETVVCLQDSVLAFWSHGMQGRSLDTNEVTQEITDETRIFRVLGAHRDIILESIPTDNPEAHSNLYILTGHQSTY
How it was run: as §1

[17] = target: T17, ERBB2 (Homo sapiens, UniProt P04626)
T17 construct: host or cells: E. coli host derived from BL21, T7 phage lysate
T17 sequence (P04626 23-1255): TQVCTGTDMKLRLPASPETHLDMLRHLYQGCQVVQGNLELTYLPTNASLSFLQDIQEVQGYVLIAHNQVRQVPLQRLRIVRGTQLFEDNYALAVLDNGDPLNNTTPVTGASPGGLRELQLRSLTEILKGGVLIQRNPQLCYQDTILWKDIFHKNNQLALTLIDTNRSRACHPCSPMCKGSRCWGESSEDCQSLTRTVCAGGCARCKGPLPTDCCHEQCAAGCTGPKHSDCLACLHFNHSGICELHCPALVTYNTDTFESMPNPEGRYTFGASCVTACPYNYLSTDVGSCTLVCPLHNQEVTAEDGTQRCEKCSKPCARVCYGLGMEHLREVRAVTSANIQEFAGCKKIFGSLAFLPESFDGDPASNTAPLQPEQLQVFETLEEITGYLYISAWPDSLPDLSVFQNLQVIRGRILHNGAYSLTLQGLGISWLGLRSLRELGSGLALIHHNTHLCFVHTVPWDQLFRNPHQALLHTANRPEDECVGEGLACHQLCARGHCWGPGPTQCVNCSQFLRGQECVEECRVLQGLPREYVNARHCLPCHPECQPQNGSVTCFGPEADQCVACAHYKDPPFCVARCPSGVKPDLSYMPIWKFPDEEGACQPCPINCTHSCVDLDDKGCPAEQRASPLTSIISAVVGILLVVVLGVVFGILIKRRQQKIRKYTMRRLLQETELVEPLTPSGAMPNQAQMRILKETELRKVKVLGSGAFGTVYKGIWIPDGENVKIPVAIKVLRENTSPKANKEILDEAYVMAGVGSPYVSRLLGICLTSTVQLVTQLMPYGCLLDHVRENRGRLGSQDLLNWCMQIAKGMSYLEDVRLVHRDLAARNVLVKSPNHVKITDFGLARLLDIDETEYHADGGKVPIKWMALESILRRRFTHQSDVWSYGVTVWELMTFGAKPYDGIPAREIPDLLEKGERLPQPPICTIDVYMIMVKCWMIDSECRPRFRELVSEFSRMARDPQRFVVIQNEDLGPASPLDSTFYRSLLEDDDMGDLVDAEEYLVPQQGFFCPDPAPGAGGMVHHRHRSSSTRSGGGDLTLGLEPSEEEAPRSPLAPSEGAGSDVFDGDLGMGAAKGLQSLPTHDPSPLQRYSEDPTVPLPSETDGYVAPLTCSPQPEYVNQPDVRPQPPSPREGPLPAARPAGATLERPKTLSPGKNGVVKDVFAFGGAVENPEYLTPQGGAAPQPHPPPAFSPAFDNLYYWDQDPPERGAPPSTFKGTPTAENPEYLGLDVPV
How it was run: as §1

[18] = target: T18, ACVR2A (Homo sapiens, UniProt P27037)
T18 construct: host or cells: E. coli host derived from BL21 (T7 phage lysate)
How it was run: as §1

[19] = target: T19, MEK2 (Homo sapiens, UniProt P36507)
T19 construct: host or cells: E. coli derived from BL21, infected with T7 phage
How it was run: as §1

[20] = target: T20, CLK1 (Homo sapiens, UniProt P49759)
T20 construct: host or cells: T7 phage in E. coli (BL21-derived)
T20 sequence (P49759 whole entry): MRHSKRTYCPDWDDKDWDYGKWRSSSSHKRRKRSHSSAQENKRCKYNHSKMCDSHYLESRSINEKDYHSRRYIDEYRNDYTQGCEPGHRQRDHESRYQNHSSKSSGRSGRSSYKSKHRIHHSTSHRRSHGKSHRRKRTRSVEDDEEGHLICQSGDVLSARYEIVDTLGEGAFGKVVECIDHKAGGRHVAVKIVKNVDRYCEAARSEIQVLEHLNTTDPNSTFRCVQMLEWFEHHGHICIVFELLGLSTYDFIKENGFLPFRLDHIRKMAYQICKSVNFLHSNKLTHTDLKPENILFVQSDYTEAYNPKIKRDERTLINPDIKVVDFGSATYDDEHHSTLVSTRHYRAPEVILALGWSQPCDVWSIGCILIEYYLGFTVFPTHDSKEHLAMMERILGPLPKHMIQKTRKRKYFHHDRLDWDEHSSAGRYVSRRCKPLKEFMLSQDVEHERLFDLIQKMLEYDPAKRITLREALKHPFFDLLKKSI
How it was run: as §1

[21] = target: T21, MLCK (Homo sapiens, UniProt Q32MK0)
T21 construct: host or cells: T7 phage in E. coli host derived from BL21
How it was run: as §1

[22] = target: T22, PRKR (Homo sapiens, UniProt P19525)
T22 construct: purchased Ambit Biosciences Corp (KinomeScan); host or cells: E. coli host derived from BL21, infected with T7 phage
T22 sequence (P19525 whole entry): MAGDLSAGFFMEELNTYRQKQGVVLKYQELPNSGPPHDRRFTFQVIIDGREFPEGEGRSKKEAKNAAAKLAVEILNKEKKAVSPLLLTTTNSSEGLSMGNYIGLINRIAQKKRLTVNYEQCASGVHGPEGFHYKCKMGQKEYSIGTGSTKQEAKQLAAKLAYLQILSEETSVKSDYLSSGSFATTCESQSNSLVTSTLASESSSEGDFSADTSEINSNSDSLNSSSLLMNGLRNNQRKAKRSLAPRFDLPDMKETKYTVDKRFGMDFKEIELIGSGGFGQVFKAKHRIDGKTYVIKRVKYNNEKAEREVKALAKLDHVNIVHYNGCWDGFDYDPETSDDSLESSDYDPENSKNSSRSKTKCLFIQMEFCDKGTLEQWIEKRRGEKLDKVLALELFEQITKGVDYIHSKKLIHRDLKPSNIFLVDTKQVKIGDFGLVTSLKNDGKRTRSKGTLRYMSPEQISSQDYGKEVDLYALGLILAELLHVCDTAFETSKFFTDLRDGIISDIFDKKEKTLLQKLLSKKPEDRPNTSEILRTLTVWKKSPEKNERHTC
How it was run: as §1

## C#Cc1cccc(Nc2ncnc3cc(OC)c(OCCCN4CCOCC4)cc23)c1 [NRC-2694, N-(3-ethylnylphenyl)-7-methoxy-6-[3-(4-morpholinyl)propoxy]-4-quinazolinamine]
[1]
  % Ctrl @ 10000 nM: 17 % Ctrl
[2]
  % Ctrl @ 10000 nM: 61 % Ctrl
[3]
  % Ctrl @ 10000 nM: 70 % Ctrl
[4]
  % Ctrl @ 10000 nM: 39 % Ctrl
[5]
  % Ctrl @ 10000 nM: 0 % Ctrl
[6]
  % Ctrl @ 10000 nM: 0 % Ctrl
[7]
  % Ctrl @ 10000 nM: 82 % Ctrl
[8]
  % Ctrl @ 10000 nM: 77 % Ctrl
[9]
  % Ctrl @ 10000 nM: 64 % Ctrl
[10]
  % Ctrl @ 10000 nM: 29 % Ctrl
[11]
  % Ctrl @ 10000 nM: 73 % Ctrl
[12]
  % Ctrl @ 10000 nM: 37 % Ctrl
[13]
  % Ctrl @ 10000 nM: 71 % Ctrl
[14]
  % Ctrl @ 10000 nM: 2.4 % Ctrl
[15]
  % Ctrl @ 10000 nM: 97 % Ctrl
[16]
  % Ctrl @ 10000 nM: 48 % Ctrl
[17]
  % Ctrl @ 10000 nM: 31 % Ctrl
[18]
  % Ctrl @ 10000 nM: 92 % Ctrl
[19]
  % Ctrl @ 10000 nM: 44 % Ctrl
[20]
  % Ctrl @ 10000 nM: 31 % Ctrl
[21]
  % Ctrl @ 10000 nM: 77 % Ctrl
[22]
  % Ctrl @ 10000 nM: 51 % Ctrl
